According to patent US12371454B2, “Cyclic peptide compound having Kras inhibitory action” (priority 2019, dated 2025):
Starred links: 1 amine or outer side, 2 acyl side, 3 side chain; linkers in the order of their positions; H or OH if unused. Positions of bridges follow the written chain, without caps; N, C: chain ends. Non-standard residues stand in square brackets, D forms with d. Residues, ends and D or L forms follow the SMILES beside them. *: point of attachment. hPhe(3,5-F2-4-CF3) = N[C@@H](CCc1cc(F)c(C(F)(F)F)c(F)c1)C(=O)O; hPhe(3-Cl-4-CF3) = N[C@@H](CCc1ccc(C(F)(F)F)c(Cl)c1)C(=O)O; hPhe(3-F,4-CF3) = N[C@@H](CCc1ccc(C(F)(F)F)c(F)c1)C(=O)O; NEtPhe(4-Cl) = CCN[C@@H](Cc1ccc(Cl)cc1)C(=O)O; NMePhe(4-Me) = CN[C@@H](Cc1ccc(C)cc1)C(=O)O; NMedβ3hAla = C[C@H](CC(=O)[*:2])N(C)[*:1]; NMeGly(cPent) = CN[C@H](C(=O)O)C1CCCC1; Phe(3-I) = N[C@@H](Cc1cccc(I)c1)C(=O)O; Pro(4,4-F2) = O=C(O)[C@@H]1CC(F)(F)CN1; NMeCha = CN[C@@H](CC1CCCCC1)C(=O)O; Pro(4-oxo) = O=C1CN[C@H](C(=O)O)C1; hPhe = N[C@@H](CCc1ccccc1)C(=O)O; NMeD = CN[C@@H](CC(=O)O)C(=O)O; NMeL = CN[C@@H](CC(C)C)C(=O)O; Cba = N[C@@H](CC1CCC1)C(=O)O; NMeV = CN[C@H](C(=O)O)C(C)C; Trifluoroethyl = FC(F)(F)C*; NMeS = CN[C@@H](CO)C(=O)O; NMeA = CN[C@@H](C)C(=O)O; NMeAib = CNC(C)(C)C(=O)O; Nle = CCCC[C@H](N)C(=O)O; Piperidide = C1CCN(*)CC1; Ac5c = NC1(C(=O)O)CCCC1; Aze = O=C(O)[C@@H]1CCN1; Sar = CNCC(=O)O; Propyl = CCC*

What follows are compounds tested against T1, Kras and SOS1 (biotin-tagged human Kras loaded with GDP, His-tagged human SOS1) (Homo sapiens, UniProt P01116, G12D) (assay: Protein-protein interaction inhibition between Kras and SOS1 (KrasGl2D-SOS PPI) using AlphaScreen). Conditions: AlphaScreen; biotin-tagged human Kras loaded with GDP, His-tagged human SOS1; read-out: KRAS G12D-SOS PPI IC50.
T1 construct: made in house; host or cells: E. coli (stated for Kras only)
Format: binding
Outline: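 Binding between SOS1 and Kras is detected as bead-proximity luminescence: illuminate Ni-conjugated donors (680 nm), collect 520-620 nm emission from streptavidin-conjugated acceptors; Kras carries biotin and GDP loaded after purification, SOS1 carries a His tag.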

T1 sequence (P01116 1-188 isoform P01116-2 G12D): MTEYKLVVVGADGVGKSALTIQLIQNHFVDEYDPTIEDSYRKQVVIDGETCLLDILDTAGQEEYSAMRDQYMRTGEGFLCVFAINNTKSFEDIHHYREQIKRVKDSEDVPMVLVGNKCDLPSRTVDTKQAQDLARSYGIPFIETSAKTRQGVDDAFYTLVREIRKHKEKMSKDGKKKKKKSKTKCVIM

Q: CC[C@H](C)[C@@H]1NC(=O)[C@H](CC(C)C)N(C)C(=O)C[C@@H](C)N(C)C(=O)[C@H](C2CCCC2)N(C)C(=O)C2(CCCC2)NC(=O)[C@@H]2CC(F)(F)CN2C(=O)[C@H](CCc2cc(F)c(C(F)(F)F)c(F)c2)NC(=O)CN(C)C(=O)[C@H](CC2CCCCC2)N(C)C(=O)CN(C)C(=O)CN(C)C1=O [Compound 198] (cyclo([Ac5c][NMeGly(cPent)][NMedβ3hAla][NMeL]I[Sar][Sar][NMeCha][Sar][hPhe(3,5-F2-4-CF3)][Pro(4,4-F2)])) was tested. Which IC50 did it give?
A: 8.5 nM

Q: CCCC[C@@H]1NC(=O)[C@H](Cc2cccc(I)c2)NC(=O)CN(C)C(=O)[C@H](Cc2ccc(Cl)cc2)N(CC)C(=O)CN(C)C(=O)CN(C)C(=O)[C@H]([C@@H](C)CC)NC(=O)[C@H](CC(C)C)N(C)C(=O)C[C@@H](C(=O)N2CCCCC2)N(C)C(=O)[C@H](CC(C)C)NC(=O)C(C)(C)N(C)C1=O [Compound 423] ([NMeL]I[Sar][Sar][NEtPhe(4-Cl)][Sar][Phe(3-I)][Nle][NMeAib]L[NMeD]-Piperidide; lactam N-11) was tested. Which IC50 did it give?
A: 64 nM

Q: CC[C@H](C)[C@@H]1NC(=O)[C@H](CC(C)C)N(C)C(=O)C[C@@H](C(=O)N2CCCCC2)N(C)C(=O)[C@H](CC(C)C)NC(=O)C(C)(C)N(C)C(=O)[C@H](CCc2ccccc2)NC(=O)[C@H](Cc2cccc(I)c2)NC(=O)CN(C)C(=O)[C@H](Cc2ccc(C)cc2)N(C)C(=O)[C@@H]2CCN2C(=O)[C@H](C)N(C)C1=O [Compound 617] ([NMeL]I[NMeA][Aze][NMePhe(4-Me)][Sar][Phe(3-I)][hPhe][NMeAib]L[NMeD]-Piperidide; lactam N-11) was tested. Which IC50 did it give?
A: 110 nM

Q: With CCCOC[C@H]1C(=O)N(C)[C@H](C(=O)N2CCCCC2)CC(=O)N(C)[C@@H](CC(C)C)C(=O)N[C@@H]([C@@H](C)CC)C(=O)N(C)CC(=O)N(C)CC(=O)N(C)[C@@H](CC2CCCCC2)C(=O)N(C)CC(=O)N[C@@H](CCc2ccc(C(F)(F)F)c(Cl)c2)C(=O)N2CCC[C@H]2C(=O)NC2(CCCC2)C(=O)N1C [Compound 1771] ([NMeL]I[Sar][Sar][NMeCha][Sar][hPhe(3-Cl-4-CF3)]P[Ac5c][NMeS](Propyl)[NMeD]-Piperidide; lactam N-11) as the compound, how does the IC50 read?
A: 78 nM

Q: For CC[C@H](C)[C@@H]1NC(=O)[C@H](C)N(C)C(=O)C[C@@H](C(=O)N2CCCCC2)N(C)C(=O)[C@H](C(C)C)N(C)C(=O)C2(CCCC2)NC(=O)[C@@H]2CCCN2C(=O)[C@H](CCc2ccc(C(F)(F)F)c(F)c2)NC(=O)CN(C)C(=O)[C@H](CC2CCCCC2)N(C)C(=O)CN(C)C(=O)CN(C)C1=O [Compound 266] ([NMeA]I[Sar][Sar][NMeCha][Sar][hPhe(3-F,4-CF3)]P[Ac5c][NMeV][NMeD]-Piperidide; lactam N-11), which IC50 is on record?
A: 4.6 nM

Q: How did the IC50 turn out when CC[C@H](C)[C@@H]1NC(=O)[C@H](CC(C)C)N(C)C(=O)C[C@@H](C(=O)N2CCCCC2)N(C)C(=O)[C@H](C(C)C)N(C)C(=O)C2(CCCC2)NC(=O)[C@@H]2CC(=O)CN2C(=O)[C@H](CCc2ccc(C(F)(F)F)c(Cl)c2)NC(=O)CN(C)C(=O)[C@H](CC2CCCCC2)N(C)C(=O)[C@@H]2CCN2C(=O)[C@H](C)N(C)C1=O [Compound 1819] ([NMeL]I[NMeA][Aze][NMeCha][Sar][hPhe(3-Cl-4-CF3)][Pro(4-oxo)][Ac5c][NMeV][NMeD]-Piperidide; lactam N-11) was run?
A: 3.8 nM

Q: Which IC50 does the source give for CC[C@H](C)[C@@H]1NC(=O)[C@H](CC(C)C)N(C)C(=O)C[C@@H](C(=O)N2CCCCC2)N(C)C(=O)[C@H](COCC(F)(F)F)N(C)C(=O)C2(CCCC2)NC(=O)[C@@H]2CCCN2C(=O)[C@H](CCc2ccc(C(F)(F)F)c(Cl)c2)NC(=O)CN(C)C(=O)[C@H](CC2CCCCC2)N(C)C(=O)CN(C)C(=O)CN(C)C1=O [Compound 208] ([NMeL]I[Sar][Sar][NMeCha][Sar][hPhe(3-Cl-4-CF3)]P[Ac5c][NMeS](Trifluoroethyl)[NMeD]-Piperidide; lactam N-11) here?
A: 120 nM

Q: Which IC50 does the source give for CC(C)C[C@H]1C(=O)N[C@@H](CC2CCC2)C(=O)N(C)CC(=O)N(C)CC(=O)N(C)[C@@H](CC2CCCCC2)C(=O)N(C)CC(=O)N[C@@H](CCc2ccc(C(F)(F)F)c(Cl)c2)C(=O)N2CCC[C@H]2C(=O)NC2(CCCC2)C(=O)N(C)[C@@H](C(C)C)C(=O)N(C)[C@H](C(=O)N2CCCCC2)CC(=O)N1C [Compound 451] ([NMeL][Cba][Sar][Sar][NMeCha][Sar][hPhe(3-Cl-4-CF3)]P[Ac5c][NMeV][NMeD]-Piperidide; lactam N-11) here?
A: 10 nM

Q: For CC[C@H](C)[C@@H]1NC(=O)[C@H](C)N(C)C(=O)C[C@@H](C(=O)N2CCCCC2)N(C)C(=O)[C@H](C(C)C)N(C)C(=O)C(C)(C)N(C)C(=O)[C@@H]2CCCN2C(=O)[C@H](CCc2ccc(C(F)(F)F)c(Cl)c2)NC(=O)CN(C)C(=O)[C@H](CC2CCCCC2)N(C)C(=O)CN(C)C(=O)CN(C)C1=O [Compound 507] ([NMeA]I[Sar][Sar][NMeCha][Sar][hPhe(3-Cl-4-CF3)]P[NMeAib][NMeV][NMeD]-Piperidide; lactam N-11), which IC50 is on record?
A: 0.48 nM
